pIC50: −log10 of the molar value.
The molecules below were run against T1, human CCR6 (Homo sapiens, UniProt P51684) (assay: FLIPR assay (inhibition of CCL20-induced calcium signal)). Settings: HEK-293 cells expressing human CCR6; mean values where determined several times; read-out: FLIPR IC50.
T1 construct: expressed in transfected cells; host or cells: HEK-293
T1 sequence (P51684 1-374): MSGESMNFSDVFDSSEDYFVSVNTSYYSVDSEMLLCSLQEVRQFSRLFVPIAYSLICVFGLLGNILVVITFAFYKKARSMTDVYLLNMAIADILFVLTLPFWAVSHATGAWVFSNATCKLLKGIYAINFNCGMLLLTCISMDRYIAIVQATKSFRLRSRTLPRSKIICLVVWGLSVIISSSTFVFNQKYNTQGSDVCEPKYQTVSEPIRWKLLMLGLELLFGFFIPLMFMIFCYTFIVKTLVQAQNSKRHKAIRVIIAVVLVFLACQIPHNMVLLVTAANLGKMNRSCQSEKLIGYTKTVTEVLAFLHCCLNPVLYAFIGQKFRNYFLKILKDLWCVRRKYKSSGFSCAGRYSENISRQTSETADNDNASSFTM
Type: cell-based
Method: FLIPR assay: The bioactivity of compounds is tested in a fluorometric imaging plate reader (FLIPR: Molecular Devices) using engineered HEK-293 cells expressing the human CCR6 (GenBank: AY242126). Frozen cells are plated on Poly-L-Lysine precoated 384-well plates 2 days prior to bioassay in DMEM medium supplemented with 10% FCS and 1% Penicillin-Streptomycin. […] This buffer, but lacking the dye, is also used for washing and compound dilution steps (assay buffer). Cells are washed free of excess dye with a wash-station (Biotek), leaving 40 microliter of assay buffer at the end. Cells were incubated for 15 minutes at room temperature in the dark, before adding compounds. Stock solutions of test compounds are made up at a concentration of 10 mM in DMSO, and serially diluted first in DMSO and then transferred in assay buffer to concentrations required for inhibition dose response curves. After a 45-minute incubation period in assay buffer at room temperature, 10 microliters of each compound dilution are transferred from a compound plate to the plate containing the recombinant cells in the FLIPR instrument according to the manufacturer's instructions. After cells and compounds were preincubated for 30 minutes at room temperature in the dark, 10 microliter agonist CCL20 (Peprotech) at a final concentration of 10 nM is added, again using the FLIPR instrument. Changes in fluorescence are monitored before and after addition of the test compounds and agonist. Emission peak values above base level after CCL20 addition are exported after base line subtraction.
The calculated IC50 values may fluctuate depending on the daily assay performance. Fluctuations of this kind are known to those skilled in the art.
`CC(C)(C)N1CC(C)([C@](O)(c2ccc(OC(F)(F)F)cc2)c2cncc(N3CCCC3)c2)C1` [Example 12, (R)-(1-tert-Butyl-3-methyl-azetidin-3-yl)-(5-pyrrolidin-1-yl-pyridin-3-yl)-(4-trifluoromethoxy-phenyl)-methanol] gave a pIC50 of 7.13. `COCC#Cc1cncc(C(O)(c2ccc(C(C)C)cc2)C2(C)CN(C)C2)c1` (centres unmarked) [Example 13, (1,3-Dimethyl-azetidin-3-yl)-(4-isopropyl-phenyl)-[5-(3-methoxy-prop-1-ynyl)-pyridin-3-yl]-methanol] was tested, and the pIC50 was 7.36. In the case of `CC(C)c1ccc([C@](O)(c2cncc(CC#CO)c2)C2(C)CN(C)C2)cc1` [Example 14, 3-{5-[(R)-(1,3-Dimethyl-azetidin-3-yl)-hydroxy-(4-isopropyl-phenyl)-methyl]-pyridin-3-yl}-prop-1-yn-1-ol], the pIC50 was 7.15. Work on `CC(C)c1ccc([C@](O)(c2cncc(C#CC(C)(C)O)c2)C2(C)CN(C)C2)cc1` [Example 15, 4-{5-[(R)-(1,3-Dimethyl-azetidin-3-yl)-hydroxy-(4-isopropyl-phenyl)-methyl]-pyridin-3-yl}-2-methyl-but-3-yn-2-ol] yielded a pIC50 of 7.09. In the case of `CC(C)c1ccc([C@](O)(c2cncc(C#C[C@@H](C)O)c2)C2(C)CN(C)C2)cc1` [Example 16], the pIC50 was 7.28. `CC(C)c1ccc([C@](O)(c2cncc(C#C[C@H](C)O)c2)C2(C)CN(C)C2)cc1` [Example 17] gave a pIC50 of 7.27. For `CC(C)c1ccc([C@](O)(c2cncc(C#CC3(O)CCCC3)c2)C2(C)CN(C)C2)cc1` [Example 18], the pIC50 was 7.47. In the case of `CC(C)c1ccc([C@](O)(c2cncc(C#CC3(O)CC3)c2)C2(C)CN(C)C2)cc1` [Example 19], the pIC50 was 7.35. Work on `CC(C)c1ccc([C@](O)(c2cncc(C#CC3(O)CN(C(=O)OC(C)(C)C)C3)c2)C2(C)CN(C)C2)cc1` [Example 20] yielded a pIC50 of 7.64. Molecule `CC(C)c1ccc([C@](O)(c2cncc(C#CC3(O)CCC3)c2)C2(C)CN(C)C2)cc1` [Example 21] has a pIC50 of 7.32. `CC(C)c1ccc([C@](O)(c2cncc(C#CCCO)c2)C2(C)CN(C)C2)cc1` [Example 22] showed a pIC50 of 6.90. With `CC(C)c1ccc([C@](O)(c2cncc(C#Cc3cnn(C)c3)c2)C2(C)CN(C)C2)cc1` [Example 23] the pIC50 was 7.33. `CC(C)c1ccc([C@](O)(c2cncc(C#CC(O)c3ccccc3)c2)C2(C)CN(C)C2)cc1` (some centres unmarked) [Example 24] showed a pIC50 of 8.19. In the case of `CC(C)c1ccc([C@](O)(c2cncc(C#CC(C)(O)c3ccccc3)c2)C2(C)CN(C)C2)cc1` (some centres unmarked) [Example 25], the pIC50 was 8.11. `CC(C)c1ccc([C@](O)(c2cncc(C#CC(O)C(C)C)c2)C2(C)CN(C)C2)cc1` (some centres unmarked) [Example 26] was tested, and the pIC50 was 7.89. `CC(C)c1ccc([C@](O)(c2cncc(C#CC3(O)CCOCC3)c2)C2(C)CN(C)C2)cc1` [Example 27] gave a pIC50 of 7.36. `CC(C)c1ccc([C@](O)(c2cncc(C#CC(O)C3CCOCC3)c2)C2(C)CN(C)C2)cc1` (some centres unmarked) [Example 28] gave a pIC50 of 7.35. For `Cc1nn(C)cc1C(O)C#Cc1cncc([C@@](O)(c2ccc(C(C)C)cc2)C2(C)CN(C)C2)c1` (some centres unmarked) [Example 29], the pIC50 was 7.07. Work on `CC(C)c1ccc([C@](O)(c2cncc(C#CC3CCOCC3)c2)C2(C)CN(C)C2)cc1` [Example 30] yielded a pIC50 of 7.47. In the case of `Cc1nc(C(O)C#Cc2cncc([C@@](O)(c3ccc(C(C)C)cc3)C3(C)CN(C)C3)c2)cs1` (some centres unmarked) [Example 31], the pIC50 was 7.09. `CC(C)c1ccc([C@](O)(c2cncc(C#CC(C)(O)c3cccc(F)c3)c2)C2(C)CN(C)C2)cc1` (some centres unmarked) [Example 32] showed a pIC50 of 7.73. With `COc1ccc(C(C)(O)C#Cc2cncc([C@@](O)(c3ccc(C(C)C)cc3)C3(C)CN(C)C3)c2)cc1` (some centres unmarked) [Example 33] the pIC50 was 7.68. `COc1ccccc1C(C)(O)C#Cc1cncc([C@@](O)(c2ccc(C(C)C)cc2)C2(C)CN(C)C2)c1` (some centres unmarked) [Example 34] showed a pIC50 of 7.68. For `CC(C)c1ccc([C@](O)(c2cncc(C#CC(C)(O)c3ccn(C)n3)c2)C2(C)CN(C)C2)cc1` (some centres unmarked) [Example 35], the pIC50 was 6.85. For `Cc1nc(C(C)(O)C#Cc2cncc([C@@](O)(c3ccc(C(C)C)cc3)C3(C)CN(C)C3)c2)cs1` (some centres unmarked) [Example 36], the pIC50 was 7.21. Molecule `COc1cccc(C(C)(O)C#Cc2cncc([C@@](O)(c3ccc(C(C)C)cc3)C3(C)CN(C)C3)c2)n1` (some centres unmarked) [Example 37] has a pIC50 of 7.68. Work on `CC(C)c1ccc([C@](O)(c2cncc(C#CC(C)(O)c3ncccn3)c2)C2(C)CN(C)C2)cc1` (some centres unmarked) [Example 38] yielded a pIC50 of 6.89. In the case of `Cc1cc(C(C)(O)C#Cc2cncc([C@@](O)(c3ccc(C(C)C)cc3)C3(C)CN(C)C3)c2)nn1C` (some centres unmarked) [Example 39], the pIC50 was 7.12. Work on `Cc1cc(C(C)(O)C#Cc2cncc(C(O)(c3ccc(C(C)C)cc3)C3(C)CN(C)C3)c2)ncn1` (centres unmarked) [Example 40] yielded a pIC50 of 7.03. With `Cc1cc(C(O)C#Cc2cncc([C@@](O)(c3ccc(C(C)C)cc3)C3(C)CN(C)C3)c2)nn1C` (some centres unmarked) [Example 41] the pIC50 was 6.88. In the case of `CC(C)c1ccc([C@](O)(c2cncc(C#CC3(O)CCCc4cccnc43)c2)C2(C)CN(C)C2)cc1` (some centres unmarked) [Example 42], the pIC50 was 7.38. `CC(C)c1ccc([C@](O)(c2cncc(C#CC3(O)CCc4cccnc43)c2)C2(C)CN(C)C2)cc1` (some centres unmarked) [Example 43] gave a pIC50 of 7.25. `CCC(O)(C#Cc1cncc([C@@](O)(c2ccc(C(C)C)cc2)C2(C)CN(C)C2)c1)c1ccccn1` (some centres unmarked) [Example 44] showed a pIC50 of 7.20. In the case of `CCC(O)(C#Cc1cncc([C@@](O)(c2ccc(C(C)C)cc2)C2(C)CN(C)C2)c1)c1cccc(OC)n1` (some centres unmarked) [Example 45], the pIC50 was 7.48. For `CC(C)C(=O)N1CC(O)(C#Cc2cncc([C@@](O)(c3ccc(C(C)C)cc3)C3(C)CN(C)C3)c2)C1` [Example 46], the pIC50 was 6.84. For `CC(C)c1ccc([C@](O)(c2cncc(C#Cc3cc4ccccc4[nH]3)c2)C2(C)CN(C)C2)cc1` [Example 47, (R)-(1,3-Dimethyl-azetidin-3-yl)-[5-(1H-indol-2-ylethynyl)-pyridin-3-yl]-(4-isopropyl-phenyl)-methanol], the pIC50 was 7.46. For `COCCCc1cncc(C(O)(c2ccc(C(C)C)cc2)C2(C)CN(C)C2)c1` (centres unmarked) [Example 48, (1,3-Dimethyl-azetidin-3-yl)-(4-isopropyl-phenyl)-[5-(3-methoxy-propyl)-pyridin-3-yl]-methanol], the pIC50 was 7.00. `CC(C)c1ccc([C@](O)(c2cncc(CCCO)c2)C2(C)CN(C)C2)cc1` [Example 49] was tested, and the pIC50 was 6.66. In the case of `CC(C)c1ccc([C@](O)(c2cncc(CCC(C)(C)O)c2)C2(C)CN(C)C2)cc1` [Example 50], the pIC50 was 7.04. With `CC(C)c1ccc([C@](O)(c2cncc(CC[C@H](C)O)c2)C2(C)CN(C)C2)cc1` [Example 51] the pIC50 was 6.87. Work on `CC(C)c1ccc([C@](O)(c2cncc(CC[C@@H](C)O)c2)C2(C)CN(C)C2)cc1` [Example 52] yielded a pIC50 of 6.70. Molecule `CC(C)c1ccc([C@](O)(c2cncc(CCC3(O)CCCC3)c2)C2(C)CN(C)C2)cc1` [Example 53] has a pIC50 of 7.33. For `CC(C)c1ccc([C@](O)(c2cncc(CCC3(O)CC3)c2)C2(C)CN(C)C2)cc1` [Example 54], the pIC50 was 7.17. `CC(C)c1ccc([C@](O)(c2cncc(CCC3(O)CN(C(=O)OC(C)(C)C)C3)c2)C2(C)CN(C)C2)cc1` [Example 55] was tested, and the pIC50 was 7.18. `CC(C)c1ccc([C@](O)(c2cncc(CCC3(O)CCC3)c2)C2(C)CN(C)C2)cc1` [Example 56] was tested, and the pIC50 was 7.21. Molecule `CC(C)c1ccc([C@](O)(c2cncc(CCCCO)c2)C2(C)CN(C)C2)cc1` [Example 57] has a pIC50 of 6.46. `CC(C)c1ccc([C@](O)(c2cncc(CCc3cnn(C)c3)c2)C2(C)CN(C)C2)cc1` [Example 58] was tested, and the pIC50 was 6.36. `CC(C)c1ccc([C@](O)(c2cncc(CCC(O)c3ccccc3)c2)C2(C)CN(C)C2)cc1` (some centres unmarked) [Example 59] showed a pIC50 of 8.15. In the case of `CC(C)c1ccc(C(O)(c2cncc(CCC(C)(O)c3ccccc3)c2)C2(C)CN(C)C2)cc1` (centres unmarked) [Example 60], the pIC50 was 8.04. `CC(C)c1ccc([C@](O)(c2cncc(CCC(O)C(C)C)c2)C2(C)CN(C)C2)cc1` (some centres unmarked) [Example 61] gave a pIC50 of 7.71. `CC(C)c1ccc([C@](O)(c2cncc(CCC3(O)CCOCC3)c2)C2(C)CN(C)C2)cc1` [Example 62] gave a pIC50 of 6.62. `CC(C)c1ccc([C@](O)(c2cncc(CCC(O)C3CCOCC3)c2)C2(C)CN(C)C2)cc1` (some centres unmarked) [Example 63] showed a pIC50 of 6.22. With `Cc1nn(C)cc1C(O)CCc1cncc([C@@](O)(c2ccc(C(C)C)cc2)C2(C)CN(C)C2)c1` (some centres unmarked) [Example 64] the pIC50 was 6.36. `CC(C)c1ccc([C@](O)(c2cncc(CCC3CCOCC3)c2)C2(C)CN(C)C2)cc1` [Example 65] showed a pIC50 of 7.35. `Cc1nc(C(O)CCc2cncc([C@@](O)(c3ccc(C(C)C)cc3)C3(C)CN(C)C3)c2)cs1` (some centres unmarked) [Example 66] gave a pIC50 of 6.65. In the case of `CC(C)c1ccc([C@](O)(c2cncc(CCC(C)(O)c3cccc(F)c3)c2)C2(C)CN(C)C2)cc1` (some centres unmarked) [Example 67], the pIC50 was 7.93.

From patent US12617773B2, “Azetidin-3-ylmethanol derivatives as CCR6 receptor modulators” (Idorsia Pharmaceuticals Ltd, priority 2020, dated 2026)
